Reference: US10183936B2, “Hepatitis B core protein allosteric modulators” (priority 2014, dated 2019)

Experiments:
AD38 cells = assay: Viability of AD38 cells (Promega CellTiter-Glo) at the end of compound treatment; type: cell-based; settings: 10 μM compound, 6 days, luminescence normalized against DMSO control wells (controls being 100%)
Procedure, shortened: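 AD38 cells seeded at 50,000/well received compound from a 10× solution in 10% DMSO and were incubated 6 days at 37° C. Viability was then read by CellTiter-Glo luminescence in tetracycline-free medium with 2% FBS and 1% DMSO, normalized to DMSO control wells (100%) and reported as percent viability.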

[1] = tested on: HBV viral production in AD38 cells; assay: Viral load production in AD38 cells by quantitative PCR of the HBV core sequence in supernatant; type: cell-based; settings: 10 μM compound, 6 days at 37° C., viral load in supernatant compared against DMSO control wells; for activity at 10 µM: Hepatitis B virus, 144 h, read-out: AD38 Viral Load (CpAM/DMSO %) at 10 μM
Procedure, shortened: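 AD38 cells seeded at 50,000/well, treated 6 days at 37° C with compound added as 10× solution in 10% DMSO. HBV core sequence in clarified supernatant quantified by TaqMan qPCR against known standards; viral load compared with DMSO control wells.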

O=C(NC[C@@H](CO)c1ccccc1)c1ccc2c(c1)NC(=O)c1ccccc1S2 [Compound 1259]
AD38 Viability Normalized Result (CPAM/DMSO %) at 10 μM (AD38 cells): 84%
activity at 10 µM [1]: 11%

CCc1cccc(CCNC(=O)c2ccc3c(c2)NC(=O)c2ccccc2S3)c1 [Compound 1260]
AD38 Viability Normalized Result (CPAM/DMSO %) at 10 μM (AD38 cells): 100%
activity at 10 µM [1]: 8%

O=C(NCc1cnco1)c1ccc2c(c1)NC(=O)c1ccccc1S2 [Compound 1264]
AD38 Viability Normalized Result (CPAM/DMSO %) at 10 μM (AD38 cells): 104%
activity at 10 µM [1]: 8%

O=C(NCCc1ccc(-n2ccnn2)cc1)c1ccc2c(c1)NC(=O)c1ccccc1S2 [Compound 1266]
AD38 Viability Normalized Result (CPAM/DMSO %) at 10 μM (AD38 cells): 74%
activity at 10 µM [1]: 1%

O=C(NCCc1ccc(-n2cnnc2)cc1)c1ccc2c(c1)NC(=O)c1ccccc1S2 [Compound 1267]
AD38 Viability Normalized Result (CPAM/DMSO %) at 10 μM (AD38 cells): 93%
activity at 10 µM [1]: 77%

O=C(NC[C@H](C(=O)O)c1ccccc1)c1ccc2c(c1)NC(=O)c1ccccc1S2 [Compound 1268, (R)-3-(11-oxo-10, 11-dihydrodibenzo [b,f] [1,4]thiazepine-8-carboxamido)-2-phenylpropanoic acid]
AD38 Viability Normalized Result (CPAM/DMSO %) at 10 μM (AD38 cells): 106%
activity at 10 µM [1]: 77%

O=C(NC[C@@H](C(=O)O)c1ccccc1)c1ccc2c(c1)NC(=O)c1ccccc1S2 [Compound 1269, (S)-3-(11-oxo-10, 11-dihydrodibenzo [b,f] [1,4]thiazepine-8-carboxamido)-2-phenylpropanoic acid]
AD38 Viability Normalized Result (CPAM/DMSO %) at 10 μM (AD38 cells): 107%
activity at 10 µM [1]: 63%

O=C(NCCc1cc[nH]n1)c1ccc2c(c1)NC(=O)c1ccccc1S2 [Compound 1270]
AD38 Viability Normalized Result (CPAM/DMSO %) at 10 μM (AD38 cells): 94%
activity at 10 µM [1]: 1%

COc1ccc2c(c1)Sc1ccc(C(=O)NCCC3CCCCC3)cc1NC2=O [Compound 1271]
AD38 Viability Normalized Result (CPAM/DMSO %) at 10 μM (AD38 cells): 100%
activity at 10 µM [1]: 6%

COc1ccc2c(c1)C(=O)Nc1cc(C(=O)NCCC3CCCCC3)ccc1S2 [Compound 1272]
AD38 Viability Normalized Result (CPAM/DMSO %) at 10 μM (AD38 cells): 102%
activity at 10 µM [1]: 24%

Cc1ccc2c(c1)Sc1ccc(C(=O)NCCC3CCCCC3)cc1NC2=O [Compound 1273]
AD38 Viability Normalized Result (CPAM/DMSO %) at 10 μM (AD38 cells): 96%
activity at 10 µM [1]: 6%

Cc1ccc2c(c1)C(=O)Nc1cc(C(=O)NCCC3CCCCC3)ccc1S2 [Compound 1274]
AD38 Viability Normalized Result (CPAM/DMSO %) at 10 μM (AD38 cells): 88%
activity at 10 µM [1]: 11%

Cc1cc2c(cc1C(=O)NCCC1CCCCC1)NC(=O)c1ccccc1S2 [Compound 1275]
AD38 Viability Normalized Result (CPAM/DMSO %) at 10 μM (AD38 cells): 93%
activity at 10 µM [1]: 3%

NC(=O)c1ccc2c(c1)Sc1ccc(C(=O)NCCC3CCCCC3)cc1NC2=O [Compound 1276]
AD38 Viability Normalized Result (CPAM/DMSO %) at 10 μM (AD38 cells): 89%
activity at 10 µM [1]: 24%

CN(C)C(=O)c1ccc2c(c1)Sc1ccc(C(=O)NCCC3CCCCC3)cc1NC2=O [Compound 1278, N-(2-cyclohexylethyl)-N^3,N^3-dimethyl-11-oxo-10, 11-dihydrodibenzo [b,f] [1,4] thiazepine-3,8-dicarboxamide]
AD38 Viability Normalized Result (CPAM/DMSO %) at 10 μM (AD38 cells): 88%
AD38 Viral Load (CpAM/DMSO %) at 10 μM [1]: 3%

NC(=O)c1ccc2c(c1)Sc1ccc(C(=O)NCCc3ccccc3)cc1NC2=O [Compound 1279]
AD38 Viability Normalized Result (CPAM/DMSO %) at 10 μM (AD38 cells): 84%
activity at 10 µM [1]: 55%

CNC(=O)c1ccc2c(c1)Sc1ccc(C(=O)NCCc3ccccc3)cc1NC2=O [Compound 1280, N^3-methyl-11-oxo-N^8-phenethyl-10, 11-dihydrodibenzo [b,f] [1,4] thiazepine-3,8-dicarboxamide]
AD38 Viability Normalized Result (CPAM/DMSO %) at 10 μM (AD38 cells): 94%
activity at 10 µM [1]: 74%

CN(C)C(=O)c1ccc2c(c1)Sc1ccc(C(=O)NCCc3ccccc3)cc1NC2=O [Compound 1281, N^3,N^3-dimethyl-11-oxo-N^8-phenethyl-10, 11-dihydrodibenzo [b,f] [1,4] thiazepine-3,8-dicarboxamide]
AD38 Viability Normalized Result (CPAM/DMSO %) at 10 μM (AD38 cells): 86%
activity at 10 µM [1]: 29%

O=C(O)c1ccc2c(c1)Sc1ccc(C(=O)NCCC3CCCCC3)cc1NC2=O [Compound 1282, 8-((2-cyclohexylethyl)carbamoyl)-11-oxo-10, 11-dihydrodibenzo [b, f] [1,4] thiazepine-3-carboxylic acid]
AD38 Viability Normalized Result (CPAM/DMSO %) at 10 μM (AD38 cells): 105%
activity at 10 µM [1]: 102%

CCc1cccc(CNC(=O)c2ccc3c(c2)NC(=O)c2ccccc2S3)c1 [Compound 1283]
AD38 Viability Normalized Result (CPAM/DMSO %) at 10 μM (AD38 cells): 97%
activity at 10 µM [1]: 1%

O=C(NCCC1CCCCC1)c1ccc2c(c1)NC(=O)c1cc(F)ccc1S2 [Compound 1285]
AD38 Viability Normalized Result (CPAM/DMSO %) at 10 μM (AD38 cells): 108%
activity at 10 µM [1]: 3%

Cc1cc(C(=O)NCCC2CCCCC2)cc2c1Sc1ccccc1C(=O)N2 [Compound 1286]
AD38 Viability Normalized Result (CPAM/DMSO %) at 10 μM (AD38 cells): 114%
activity at 10 µM [1]: 36%

COc1cc2c(cc1C(=O)NCCC1CCCCC1)NC(=O)c1ccccc1S2 [Compound 1287]
AD38 Viability Normalized Result (CPAM/DMSO %) at 10 μM (AD38 cells): 96%
activity at 10 µM [1]: 11%

O=C1Nc2cc(S(=O)(=O)NCCc3ccccc3)ccc2Sc2ccccc21 [Compound 1289, 11-oxo-N-phenethyl-10, 11-dihydrodibenzo [b,f] [1,4] thiazepine-8-sulfonamide]
AD38 Viability Normalized Result (CPAM/DMSO %) at 10 μM (AD38 cells): 96%
activity at 10 µM [1]: 40%

O=C(NCCc1cncnc1)c1ccc2c(c1)NC(=O)c1ccccc1S2 [Compound 1290]
AD38 Viability Normalized Result (CPAM/DMSO %) at 10 μM (AD38 cells): 94%
activity at 10 µM [1]: 33%

O=C(NCCc1ccc(-c2cnn[nH]2)cc1)c1ccc2c(c1)NC(=O)c1ccccc1S2 [Compound 1291]
AD38 Viability Normalized Result (CPAM/DMSO %) at 10 μM (AD38 cells): 102%
activity at 10 µM [1]: 1%

O=C(NCc1cncnc1)c1ccc2c(c1)NC(=O)c1cc(F)ccc1S2 [Compound 1308]
AD38 Viability Normalized Result (CPAM/DMSO %) at 10 μM (AD38 cells): 99%
activity at 10 µM [1]: 1%

O=C(NCc1cncs1)c1ccc2c(c1)NC(=O)c1cc(F)ccc1S2 [Compound 1309]
AD38 Viability Normalized Result (CPAM/DMSO %) at 10 μM (AD38 cells): 107%
activity at 10 µM [1]: 1%

O=C(NCCc1ccccn1)c1ccc2c(c1)NC(=O)c1cc(F)ccc1S2 [Compound 1310]
AD38 Viability Normalized Result (CPAM/DMSO %) at 10 μM (AD38 cells): 89%
activity at 10 µM [1]: 1%

O=C(NCc1cnco1)c1ccc2c(c1)NC(=O)c1cc(F)ccc1S2 [Compound 1311]
AD38 Viability Normalized Result (CPAM/DMSO %) at 10 μM (AD38 cells): 95%
activity at 10 µM [1]: 8%

O=C(NCCc1cncnc1)c1ccc2c(c1)NC(=O)c1cc(F)ccc1S2 [Compound 1312]
AD38 Viability Normalized Result (CPAM/DMSO %) at 10 μM (AD38 cells): 83%
activity at 10 µM [1]: 5%

CC(C)(C)c1ccc([C@@H](CO)NC(=O)c2ccc3c(c2)NC(=O)c2cc(F)ccc2S3)cc1 [Compound 1313]
AD38 Viability Normalized Result (CPAM/DMSO %) at 10 μM (AD38 cells): 108%
activity at 10 µM [1]: 17%

O=C(NCc1ccc(-c2cncnc2)cc1)c1ccc2c(c1)NC(=O)c1cc(F)ccc1S2 [Compound 1314]
AD38 Viability Normalized Result (CPAM/DMSO %) at 10 μM (AD38 cells): 101%
activity at 10 µM [1]: 69%

O=C(NCc1cnc(-c2ccccc2)nc1)c1ccc2c(c1)NC(=O)c1cc(F)ccc1S2 [Compound 1315]
AD38 Viability Normalized Result (CPAM/DMSO %) at 10 μM (AD38 cells): 103%
activity at 10 µM [1]: 4%

O=C(Nc1ccc(F)cc1)c1ccc2c(c1)NC(=O)c1cc(F)ccc1S2 [Compound 1316]
AD38 Viability Normalized Result (CPAM/DMSO %) at 10 μM (AD38 cells): 89%
activity at 10 µM [1]: 32%

O=C(Nc1cccc(F)c1)c1ccc2c(c1)NC(=O)c1cc(F)ccc1S2 [Compound 1317]
AD38 Viability Normalized Result (CPAM/DMSO %) at 10 μM (AD38 cells): 95%
activity at 10 µM [1]: 50%

O=C(Nc1ccc(F)cc1F)c1ccc2c(c1)NC(=O)c1cc(F)ccc1S2 [Compound 1318]
AD38 Viability Normalized Result (CPAM/DMSO %) at 10 μM (AD38 cells): 70%
activity at 10 µM [1]: 14%

O=C(Nc1ccccc1)c1ccc2c(c1)NC(=O)c1cc(F)ccc1S2 [Compound 1319]
AD38 Viability Normalized Result (CPAM/DMSO %) at 10 μM (AD38 cells): 83%
activity at 10 µM [1]: 16%

O=C(NCCc1ccc(-c2cncnc2)cc1)c1ccc2c(c1)NC(=O)c1cc(F)ccc1S2 [Compound 1320]
AD38 Viability Normalized Result (CPAM/DMSO %) at 10 μM (AD38 cells): 93%
activity at 10 µM [1]: 43%

O=C(Nc1ccc(Cl)cc1)c1ccc2c(c1)NC(=O)c1cc(F)ccc1S2 [Compound 1321]
AD38 Viability Normalized Result (CPAM/DMSO %) at 10 μM (AD38 cells): 74%
activity at 10 µM [1]: 15%

O=C(Nc1ccccc1F)c1ccc2c(c1)NC(=O)c1cc(F)ccc1S2 [Compound 1322]
AD38 Viability Normalized Result (CPAM/DMSO %) at 10 μM (AD38 cells): 94%
activity at 10 µM [1]: 28%

O=C(Nc1ccc(F)cc1Cl)c1ccc2c(c1)NC(=O)c1cc(F)ccc1S2 [Compound 1323]
AD38 Viability Normalized Result (CPAM/DMSO %) at 10 μM (AD38 cells): 60%
activity at 10 µM [1]: 96%
